Data: EP4818168A1, “FUSED RING COMPOUND, PHARMACEUTICAL COMPOSITION THEREOF AND USE THEREOF” (priority 2023, dated 2025)
Read-outs that look alike come from different tables or passages of the source.

What was measured:
AURKA = biological target: T1, AURKA (Homo sapiens, UniProt O14965); assay type: cell-based
T1 construct: endogenous in cells; host or cells: Jurkat cells
T1 sequence (O14965 1-403): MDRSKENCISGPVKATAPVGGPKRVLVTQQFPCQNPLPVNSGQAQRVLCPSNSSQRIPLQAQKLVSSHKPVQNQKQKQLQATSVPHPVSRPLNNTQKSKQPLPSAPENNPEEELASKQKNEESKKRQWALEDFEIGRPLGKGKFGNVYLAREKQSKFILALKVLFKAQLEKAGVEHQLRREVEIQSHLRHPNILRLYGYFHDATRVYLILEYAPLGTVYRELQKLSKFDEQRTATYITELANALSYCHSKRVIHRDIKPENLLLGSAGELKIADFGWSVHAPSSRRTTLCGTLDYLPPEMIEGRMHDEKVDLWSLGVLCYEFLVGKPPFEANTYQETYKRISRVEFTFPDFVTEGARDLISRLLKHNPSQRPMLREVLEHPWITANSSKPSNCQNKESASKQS
In short: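 AURKA degradation read by western blot: band signal, fluorescent or chemiluminescent, curve-fitted to derive DC50. Cells were Jurkat, plated at 1×10^6 cells/500 µL with compound, then lysed and blotted onto nitrocellulose, primary antibody overnight at 4°C.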

H82 cells = assay: cells; assay type: cell-based; details: Homo sapiens
In short: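 After 6 days' compound treatment at 37 °C (final DMSO 0.1%, RPMI1640/10% FBS), viable H82 cells were quantified by ATP-dependent CellTiter-Glo luminescence. Remaining activity was calculated against DMSO and medium wells, and a sigmoidal fit gave IC50.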

[1] = 100 nM compound, Jurkat cells, 24 h, Table 2
[2] = 1 µM compound, Jurkat cells, 24 h, Table 2
[3] = NCI-H82, H82 cells, 4000 cells/well, CellTiter-Glo, read-out: IC50 in H82 Cells
[4] = NCI-H82, read-out: IC50 in H82 Cells

SMILES	Percentage of AURKA Degradation Induced by 100 nM Compound in Jurkat Cells (AURKA; [1])	Percentage of AURKA Degradation Induced by 1 µM Compound in Jurkat Cells (AURKA; [2])	IC50 (H82 cells; [3]) [nM]	IC50 (H82 cells; [4]) [nM]	Percentage of AURKA Degradation Induced by 100 nM Compound in Jurkat Cells (AURKA)	Percentage of AURKA Degradation Induced by 1 µM Compound in Jurkat Cells (AURKA)
Cn1nc(N2CCC(=O)NC2=O)c2cc(F)c(N3CCN(CC4CN(c5cccc(Nc6ncc7c(n6)-c6ccc(Cl)cc6C(c6c(F)cccc6F)=NC7)c5)C4)CC3)cc21 [Compound A245]	+++ (Degradation > 70%)	+++ (Degradation > 70%)	< 1000	–	–	–
O=C1CCN(c2ccc(N3CCN(CC4CN(c5ccc(Nc6ncc7c(n6)-c6ccc(Cl)cc6C(c6c(F)cccc6F)=NC7)cn5)C4)CC3)nc2)C(=O)N1 [Compound A248]	+++ (Degradation > 70%)	+++ (Degradation > 70%)	< 1000	–	–	–
O=C1CCN(c2ccc(C3CCN(CC4CN(c5ccc(Nc6ncc7c(n6)-c6ccc(Cl)cc6C(c6c(F)cccc6F)=NC7)cc5)C4)CC3)nc2)C(=O)N1 [Compound A249]	+++ (Degradation > 70%)	+++ (Degradation > 70%)	< 1000	–	–	–
O=C1CCN(c2ccc(N3CCC(CN4CCN(C56CC(Nc7ncc8c(n7)-c7ccc(Cl)cc7C(c7c(F)cccc7F)=NC8)(C5)C6)C(=O)C4)CC3)nc2)C(=O)N1 [Compound A250]	+++ (Degradation > 70%)	+++ (Degradation > 70%)	< 1000	–	–	–
N#CC1CN(C2CCN(c3ccc(N4CCC(=O)NC4=O)cn3)CC2)CCN1c1ccc(Nc2ncc3c(n2)-c2ccc(Cl)cc2C(c2c(F)cccc2F)=NC3)cc1 (stereo not drawn) [Compound A251]	+++ (Degradation > 70%)	+++ (Degradation > 70%)	< 1000	–	–	–
O=C1CCN(c2ccc(N3CCN(C4(C5CN(c6ccc(Nc7ncc8c(n7)-c7ccc(Cl)cc7C(c7c(F)cccc7F)=NC8)cc6)C5)CC4)CC3)nc2)C(=O)N1 [Compound A252]	+++ (Degradation > 70%)	+++ (Degradation > 70%)	< 1000	–	–	–
COc1cccc(F)c1C1=NCc2cnc(Nc3ccc(N4CC(CN5CCN(c6ccc(N7CCC(=O)NC7=O)cn6)CC5)C4)cc3)nc2-c2ccc(Cl)cc21 [Compound A253]	+++ (Degradation > 70%)	+++ (Degradation > 70%)	< 1000	–	–	–
O=C1CCN(c2ccc(N3CCC(OC4CN(c5ccc(Nc6ncc7c(n6)-c6ccc(Cl)cc6C(c6c(F)cccc6F)=NC7)cc5)C4)CC3)nc2)C(=O)N1 [Compound A254]	+++ (Degradation > 70%)	++ (30% < Degradation ≤ 70%)	< 1000	–	–	–
O=C1CCN(c2ccc(N3CCN(C(=O)N4CCN(C56CC(Nc7ncc8c(n7)-c7ccc(Cl)cc7C(c7c(F)cccc7F)=NC8)(C5)C6)CC4)CC3)nc2)C(=O)N1 [Compound A255]	++ (30% < Degradation ≤ 70%)	++ (30% < Degradation ≤ 70%)	< 1000	–	–	–
COc1cc(Nc2ncc3c(n2)-c2ccc(Cl)cc2C(c2c(F)cccc2OC)=NC3)ccc1N1CCN(C2CCN(c3ccc(N4CCC(=O)NC4=O)cn3)CC2)CC1 [Compound A256]	+++ (Degradation > 70%)	+++ (Degradation > 70%)	< 1000	–	–	–
O=C1CCN(c2ccc(N3CCN(C(=O)N4CCN(c5ccc(Nc6ncc7c(n6)-c6ccc(Cl)cc6C(c6c(F)cccc6F)=NC7)cc5)CC4)CC3)nc2)C(=O)N1 [Compound A258]	+++ (Degradation > 70%)	+++ (Degradation > 70%)	< 1000	–	–	–
O=C1CCN(c2ccc(N3CCN(CC4(F)CN(c5ccc(Nc6ncc7c(n6)-c6ccc(Cl)cc6C(c6c(F)cccc6F)=NC7)cc5)C4)CC3)nc2)C(=O)N1 [Compound A259]	+++ (Degradation > 70%)	+++ (Degradation > 70%)	< 1000	–	–	–
COc1cc(Nc2ncc3c(n2)-c2ccc(Cl)cc2C(c2c(F)cccc2OC)=NC3)ccc1N1CC(CN2CCN(c3ccc(N4CCC(=O)NC4=O)cn3)CC2)C1 [Compound A261]	+++ (Degradation > 70%)	+++ (Degradation > 70%)	< 1000	–	–	–
O=C1CCN(c2ccc(N3CCC(N4CCN(c5ccc(Nc6ncc7c(n6)-c6ccc(Cl)cc6C(c6c(F)cccc6F)=NC7)cc5)CC4)C(F)(F)C3)nc2)C(=O)N1 (stereo not drawn) [Compound A263]	+++ (Degradation > 70%)	+++ (Degradation > 70%)	–	< 1000	–	–
O=C1CCN(c2ccc(N3CCC(O)(CN4CCN(c5ccc(Nc6ncc7c(n6)-c6ccc(Cl)cc6C(c6c(F)cccc6F)=NC7)cc5)CC4)CC3)nc2)C(=O)N1 [Compound A264]	+++ (Degradation > 70%)	+++ (Degradation > 70%)	< 1000	–	–	–
O=C1CCN(c2ccc(N3CCC4(CCN(C(=O)C56CC(Nc7ncc8c(n7)-c7ccc(Cl)cc7C(c7c(F)cccc7F)=NC8)(C5)C6)CC4)CC3)nc2)C(=O)N1 [Compound A265]	+ (Degradation ≤ 30%)	+ (Degradation ≤ 30%)	< 1000	–	–	–
O=C1CCN(c2ccc(N3CC(N4CCN(Cc5ccc(Nc6ncc7c(n6)-c6ccc(Cl)cc6C(c6c(F)cccc6F)=NC7)cc5)C(=O)C4)C3)nc2)C(=O)N1 [Compound A267]	–	–	–	< 1000	++ (key: +: Degradation ≤ 30%; ++: 30% < Degradation ≤ 70%; +++: Degradation > 70%)	+++ (key: +: Degradation ≤ 30%; ++: 30% < Degradation ≤ 70%; +++: Degradation > 70%)
CP(C)(=O)c1ccc2c(c1)C(c1c(F)cccc1F)=NCc1cnc(Nc3ccc(N4CCN(C5CCN(c6ccc(N7CCC(=O)NC7=O)cn6)CC5)CC4=O)cc3)nc1-2 [Compound A268]	+++ (Degradation > 70%)	+++ (Degradation > 70%)	1000 to 10000	–	–	–
CP(C)(=O)c1ccc2c(c1)C(c1c(F)cccc1F)=NCc1cnc(Nc3ccc(N4CC(CN5CCN(c6ccc(N7CCC(=O)NC7=O)cn6)CC5)C4)cc3)nc1-2 [Compound A269]	+++ (Degradation > 70%)	+++ (Degradation > 70%)	1000 to 10000	–	–	–
O=C1CCN(c2ccc(N3CCC(C(=O)N4CCN(C56CC(Nc7ncc8c(n7)-c7ccc(Cl)cc7C(c7c(F)cccc7F)=NC8)(C5)C6)C(=O)C4)CC3)nc2)C(=O)N1 [Compound A270]	+++ (Degradation > 70%)	+++ (Degradation > 70%)	< 1000	–	–	–
O=C1CCN(c2ccc(N3CCC(C4CCN(c5ccc(Nc6ncc7c(n6)-c6ccc(Cl)cc6C(c6c(F)cccc6F)=NC7)cc5)CC4)CC3)nc2)C(=O)N1 [Compound A271]	++ (30% < Degradation ≤ 70%)	+++ (Degradation > 70%)	< 1000	–	–	–
O=C1CCN(c2ccc(N3CCC(F)(CN4CCN(C56CC(Nc7ncc8c(n7)-c7ccc(Cl)cc7C(c7c(F)cccc7F)=NC8)(C5)C6)C(=O)C4)CC3)nc2)C(=O)N1 [Compound A272]	–	–	–	< 1000	+++ (key: +: Degradation ≤ 30%; ++: 30% < Degradation ≤ 70%; +++: Degradation > 70%)	+++ (key: +: Degradation ≤ 30%; ++: 30% < Degradation ≤ 70%; +++: Degradation > 70%)
O=C1CCN(c2ccc(N3CCC(C4CCN(C(=O)C56CC(Nc7ncc8c(n7)-c7ccc(Cl)cc7C(c7c(F)cccc7F)=NC8)(C5)C6)CC4)CC3)nc2)C(=O)N1 [Compound A273]	+++ (Degradation > 70%)	+++ (Degradation > 70%)	< 1000	–	–	–
O=C1CCN(c2ccc(N3CC(C(=O)N4CCN(c5ccc(Nc6ncc7c(n6)-c6ccc(Cl)cc6C(c6c(F)cccc6F)=NC7)cc5)CC4)C3)nc2)C(=O)N1 [Compound A274]	+++ (Degradation > 70%)	+++ (Degradation > 70%)	< 1000	–	–	–
O=C1CCN(c2ccc(N3CC(N4CCN(C(=O)C56CC(Nc7ncc8c(n7)-c7ccc(Cl)cc7C(c7c(F)cccc7F)=NC8)(C5)C6)CC4)C3)nc2)C(=O)N1 [Compound A275]	+++ (Degradation > 70%)	+++ (Degradation > 70%)	< 1000	–	–	–
